{"source": "PubChem BioAssay AID1963980", "about": "(Molecular Pharmacology Branch, DTP, NCI, 2024)"}
{"tested_on": "475296-252-R-J1-PDC spheroid viability", "assay": "Anticancer human tumor 475296-252-R-J1-PDC patient-derived rectal carcinoma cell line growth inhibition [PI3K]", "details": "curve of first compound; second compound 0.0316 µM; spheroids with HUVEC and MSC", "method_in_brief": "(§1)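 Tumor cells grown as multi-cell spheroids with HUVEC endothelial cells and MSC fibroblast-like stroma were treated with targeted agents combined with inavolisib, alpelisib, duvelisib or copanlisib. Doses fell in half-log steps from near clinical Cmax, else from 10 microM. Viability was measured.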", "units": {"IC50": "µM"}}
{"smiles": "C#Cc1c(F)ccc2cc(O)cc(-c3ncc4c(N5CC6CCC(C5)N6)nc(OCC56CCCN5CC(F)C6)nc4c3F)c12", "note": "(stereo unspecified) + Cc1nc(NC(=O)N2CCCC2C(N)=O)sc1-c1ccnc(C(C)(C)C(F)(F)F)c1", "IC50": "> 10"}
{"smiles": "C=CC(=O)N1CCN(c2nc(=O)n(-c3c(C)ccnc3C(C)C)c3nc(-c4c(O)cccc4F)c(F)cc23)C(C)C1", "note": "(stereo unspecified) + Cc1nc(NC(=O)N2CCCC2C(N)=O)sc1-c1ccnc(C(C)(C)C(F)(F)F)c1", "IC50": "> 10"}
{"smiles": "CC(Cn1ccc(-c2ccc(C#N)c(Cl)c2)n1)NC(=O)c1cc(C(C)O)[nH]n1", "note": "(stereo unspecified) + Cc1nc(NC(=O)N2CCCC2C(N)=O)sc1-c1ccnc(C(C)(C)C(F)(F)F)c1", "IC50": "> 10"}
{"smiles": "Cn1ncc(Cl)c1-c1cc(C(=O)NC(CN)Cc2cccc(F)c2)sc1Cl", "note": "(stereo unspecified) + Cc1nc(NC(=O)N2CCCC2C(N)=O)sc1-c1ccnc(C(C)(C)C(F)(F)F)c1", "IC50": "> 10"}
{"smiles": "Cn1nccc1Nc1nccc(-c2ccn(C(CO)c3ccc(Cl)c(F)c3)c(=O)c2)n1", "note": "(stereo unspecified) + Cc1nc(NC(=O)N2CCCC2C(N)=O)sc1-c1ccnc(C(C)(C)C(F)(F)F)c1", "IC50": "> 10"}
{"tested_on": "475296-252-R-J1-PDC spheroid viability", "assay": "Anticancer human tumor 475296-252-R-J1-PDC cell line growth inhibition [PI3K];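 note: spheroids exposed to agents for seven days before readout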", "details": "curve of first compound; second compound 0.1 µM; spheroids with HUVEC and MSC", "method_in_brief": "as §1", "units": {"IC50": "µM"}}
{"smiles": "C#Cc1c(F)ccc2cc(O)cc(-c3ncc4c(N5CC6CCC(C5)N6)nc(OCC56CCCN5CC(F)C6)nc4c3F)c12", "note": "(stereo unspecified) + Cc1nc(NC(=O)N2CCCC2C(N)=O)sc1-c1ccnc(C(C)(C)C(F)(F)F)c1", "IC50": "> 10"}
{"smiles": "C=CC(=O)N1CCN(c2nc(=O)n(-c3c(C)ccnc3C(C)C)c3nc(-c4c(O)cccc4F)c(F)cc23)C(C)C1", "note": "(stereo unspecified) + Cc1nc(NC(=O)N2CCCC2C(N)=O)sc1-c1ccnc(C(C)(C)C(F)(F)F)c1", "IC50": "> 10"}
{"smiles": "CC(Cn1ccc(-c2ccc(C#N)c(Cl)c2)n1)NC(=O)c1cc(C(C)O)[nH]n1", "note": "(stereo unspecified) + Cc1nc(NC(=O)N2CCCC2C(N)=O)sc1-c1ccnc(C(C)(C)C(F)(F)F)c1", "IC50": "> 10"}
{"smiles": "Cn1ncc(Cl)c1-c1cc(C(=O)NC(CN)Cc2cccc(F)c2)sc1Cl", "note": "(stereo unspecified) + Cc1nc(NC(=O)N2CCCC2C(N)=O)sc1-c1ccnc(C(C)(C)C(F)(F)F)c1", "IC50": "> 10"}
{"smiles": "Cn1nccc1Nc1nccc(-c2ccn(C(CO)c3ccc(Cl)c(F)c3)c(=O)c2)n1", "note": "(stereo unspecified) + Cc1nc(NC(=O)N2CCCC2C(N)=O)sc1-c1ccnc(C(C)(C)C(F)(F)F)c1", "IC50": "> 10"}
{"tested_on": "475296-252-R-J1-PDC spheroid viability", "assay": "Anticancer human tumor 475296-252-R-J1-PDC cell line growth inhibition [PI3K];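 note: spheroids exposed to agents for seven days before readout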", "details": "curve of first compound; second compound 0.316 µM; spheroids with HUVEC and MSC", "method_in_brief": "as §1", "units": {"IC50": "µM"}}
{"smiles": "C#Cc1c(F)ccc2cc(O)cc(-c3ncc4c(N5CC6CCC(C5)N6)nc(OCC56CCCN5CC(F)C6)nc4c3F)c12", "note": "(stereo unspecified) + Cc1nc(NC(=O)N2CCCC2C(N)=O)sc1-c1ccnc(C(C)(C)C(F)(F)F)c1", "IC50": 8.41}
{"smiles": "C=CC(=O)N1CCN(c2nc(=O)n(-c3c(C)ccnc3C(C)C)c3nc(-c4c(O)cccc4F)c(F)cc23)C(C)C1", "note": "(stereo unspecified) + Cc1nc(NC(=O)N2CCCC2C(N)=O)sc1-c1ccnc(C(C)(C)C(F)(F)F)c1", "IC50": "> 10"}
{"smiles": "CC(Cn1ccc(-c2ccc(C#N)c(Cl)c2)n1)NC(=O)c1cc(C(C)O)[nH]n1", "note": "(stereo unspecified) + Cc1nc(NC(=O)N2CCCC2C(N)=O)sc1-c1ccnc(C(C)(C)C(F)(F)F)c1", "IC50": "> 10"}
{"smiles": "Cn1ncc(Cl)c1-c1cc(C(=O)NC(CN)Cc2cccc(F)c2)sc1Cl", "note": "(stereo unspecified) + Cc1nc(NC(=O)N2CCCC2C(N)=O)sc1-c1ccnc(C(C)(C)C(F)(F)F)c1", "IC50": "> 10"}
{"smiles": "Cn1nccc1Nc1nccc(-c2ccn(C(CO)c3ccc(Cl)c(F)c3)c(=O)c2)n1", "note": "(stereo unspecified) + Cc1nc(NC(=O)N2CCCC2C(N)=O)sc1-c1ccnc(C(C)(C)C(F)(F)F)c1", "IC50": "> 10"}
{"tested_on": "475296-252-R-J1-PDC spheroid viability", "assay": "Anticancer human tumor 475296-252-R-J1-PDC cell line growth inhibition [PI3K];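 note: spheroids exposed to agents for seven days before readout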", "details": "curve of first compound; second compound 1 µM; spheroids with HUVEC and MSC", "method_in_brief": "as §1", "units": {"IC50": "µM"}}
{"smiles": "C#Cc1c(F)ccc2cc(O)cc(-c3ncc4c(N5CC6CCC(C5)N6)nc(OCC56CCCN5CC(F)C6)nc4c3F)c12", "note": "(stereo unspecified) + Cc1nc(NC(=O)N2CCCC2C(N)=O)sc1-c1ccnc(C(C)(C)C(F)(F)F)c1", "IC50": 4.42}
{"smiles": "C=CC(=O)N1CCN(c2nc(=O)n(-c3c(C)ccnc3C(C)C)c3nc(-c4c(O)cccc4F)c(F)cc23)C(C)C1", "note": "(stereo unspecified) + Cc1nc(NC(=O)N2CCCC2C(N)=O)sc1-c1ccnc(C(C)(C)C(F)(F)F)c1", "IC50": "> 10"}
{"smiles": "CC(Cn1ccc(-c2ccc(C#N)c(Cl)c2)n1)NC(=O)c1cc(C(C)O)[nH]n1", "note": "(stereo unspecified) + Cc1nc(NC(=O)N2CCCC2C(N)=O)sc1-c1ccnc(C(C)(C)C(F)(F)F)c1", "IC50": "> 10"}
{"smiles": "Cn1ncc(Cl)c1-c1cc(C(=O)NC(CN)Cc2cccc(F)c2)sc1Cl", "note": "(stereo unspecified) + Cc1nc(NC(=O)N2CCCC2C(N)=O)sc1-c1ccnc(C(C)(C)C(F)(F)F)c1", "IC50": "> 10"}
{"smiles": "Cn1nccc1Nc1nccc(-c2ccn(C(CO)c3ccc(Cl)c(F)c3)c(=O)c2)n1", "note": "(stereo unspecified) + Cc1nc(NC(=O)N2CCCC2C(N)=O)sc1-c1ccnc(C(C)(C)C(F)(F)F)c1", "IC50": "> 10"}
{"tested_on": "475296-252-R-J1-PDC spheroid viability", "assay": "Anticancer human tumor 475296-252-R-J1-PDC cell line growth inhibition [PI3K];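 note: spheroids exposed to agents for seven days before readout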", "details": "curve of first compound; second compound 3.16 µM; spheroids with HUVEC and MSC", "method_in_brief": "as §1", "units": {"IC50": "µM"}}
{"smiles": "C#Cc1c(F)ccc2cc(O)cc(-c3ncc4c(N5CC6CCC(C5)N6)nc(OCC56CCCN5CC(F)C6)nc4c3F)c12", "note": "(stereo unspecified) + Cc1nc(NC(=O)N2CCCC2C(N)=O)sc1-c1ccnc(C(C)(C)C(F)(F)F)c1", "IC50": 0.689}
{"smiles": "C=CC(=O)N1CCN(c2nc(=O)n(-c3c(C)ccnc3C(C)C)c3nc(-c4c(O)cccc4F)c(F)cc23)C(C)C1", "note": "(stereo unspecified) + Cc1nc(NC(=O)N2CCCC2C(N)=O)sc1-c1ccnc(C(C)(C)C(F)(F)F)c1", "IC50": "> 10"}
{"smiles": "CC(Cn1ccc(-c2ccc(C#N)c(Cl)c2)n1)NC(=O)c1cc(C(C)O)[nH]n1", "note": "(stereo unspecified) + Cc1nc(NC(=O)N2CCCC2C(N)=O)sc1-c1ccnc(C(C)(C)C(F)(F)F)c1", "IC50": "> 10"}
{"smiles": "Cn1ncc(Cl)c1-c1cc(C(=O)NC(CN)Cc2cccc(F)c2)sc1Cl", "note": "(stereo unspecified) + Cc1nc(NC(=O)N2CCCC2C(N)=O)sc1-c1ccnc(C(C)(C)C(F)(F)F)c1", "IC50": 8.01}
{"smiles": "Cn1nccc1Nc1nccc(-c2ccn(C(CO)c3ccc(Cl)c(F)c3)c(=O)c2)n1", "note": "(stereo unspecified) + Cc1nc(NC(=O)N2CCCC2C(N)=O)sc1-c1ccnc(C(C)(C)C(F)(F)F)c1", "IC50": "> 10"}
{"tested_on": "475296-252-R-J1-PDC spheroid viability", "assay": "Anticancer human tumor 475296-252-R-J1-PDC cell line growth inhibition [PI3K];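 note: spheroids exposed to agents for seven days before readout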", "details": "curve of first compound; second compound 10 µM; spheroids with HUVEC and MSC", "method_in_brief": "as §1", "units": {"IC50": "µM"}}
{"smiles": "C#Cc1c(F)ccc2cc(O)cc(-c3ncc4c(N5CC6CCC(C5)N6)nc(OCC56CCCN5CC(F)C6)nc4c3F)c12", "note": "(stereo unspecified) + Cc1nc(NC(=O)N2CCCC2C(N)=O)sc1-c1ccnc(C(C)(C)C(F)(F)F)c1", "IC50": 0.267}
